# Counter-ions that a name gives are not always drawn. Like-named read-outs stand apart in the source and are kept apart here.
# Key:
# [1] = Hypotensive activity in spontaneously hypertensive rats, mean arterial blood pressure (Chan and Poorvin); assay type: in vivo, spontaneously hypertensive rats of the Okamoto strain; details: oral gavage, 100 mg/kg or less, two doses 24 hours apart, measured 28 hours after initial dose; average MABP of rats used 160±1.5 mm Hg
# Procedure: The novel compounds of the present invention also are active antihypertensive agents and were tested for hypotensive activity by the method of P. S. Chan and D. Poorvin, Clinical and Experimental Hypertension, 1(6), 817-830 (1979). Male, 16 week old, spontaneously hypertensive rats of the Okamoto strain, from Taconic Farms, Germantown, N.Y., having an average mean arterial blood pressure of 160±1.5 mm of mercury are used in the test. One to three rats are used per test compound. A rat is dosed by gavage with a test compound, suspended in 2% pre-boiled starch at a concentration of 50 mg/ml, at a dose of 100 mg/kg of body weight or less, with 0.9% sodium chloride loading at a dose of 25 ml/kg of body weight. A second identical dose of the test compound, without sodium chloride loading, is given 24 hours later. At 28 hours after the initial dose the mean arterial blood pressure is measured by the method of Chan and Poorvin, vide supra. The procedure is repeated in a second and third rat when necessary.
# thromboxane synthetase = molecular target: T1, thromboxane synthetase (Rattus norvegicus, UniProt P49430); assay: Inhibition of thromboxane (TXA2) formation in SHR platelets, TXB2 measured by radioimmunoassay; assay type: cell-based, Okamoto-Aoki spontaneously hypertensive rats (SHR); details: read-out: % Inhibition (of TXB2 formation)
# T1 construct: The platelets were isolated by centrifuging the PRP for 10 minutes; endogenous in cells; host or cells: washed platelets from arterial blood of Okamoto-Aoki spontaneously hypertensive rats (animals from Taconic Farms)
# T1 sequence (P49430 1-533): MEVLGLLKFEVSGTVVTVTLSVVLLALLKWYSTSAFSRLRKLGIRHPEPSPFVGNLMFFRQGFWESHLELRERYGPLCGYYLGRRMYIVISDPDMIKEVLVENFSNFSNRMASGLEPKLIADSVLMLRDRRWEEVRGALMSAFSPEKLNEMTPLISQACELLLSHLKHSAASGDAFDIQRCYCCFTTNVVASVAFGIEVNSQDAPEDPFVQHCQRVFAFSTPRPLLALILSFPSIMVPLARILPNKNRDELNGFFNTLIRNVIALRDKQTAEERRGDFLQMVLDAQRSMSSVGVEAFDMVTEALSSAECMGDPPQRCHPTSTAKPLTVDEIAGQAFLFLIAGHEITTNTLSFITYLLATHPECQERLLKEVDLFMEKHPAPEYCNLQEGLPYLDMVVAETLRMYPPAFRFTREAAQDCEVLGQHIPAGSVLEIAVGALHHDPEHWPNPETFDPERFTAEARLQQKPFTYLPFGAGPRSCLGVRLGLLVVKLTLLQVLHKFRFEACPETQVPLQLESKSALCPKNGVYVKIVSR
# Procedure: The inhibition of thromboxane (TXA2) formation was studied by determining the concentration of thromboxane B2 (TXB2), the stable hydrolysis product of TXA2. […] The blood was diluted with 3 ml cold saline and centrifuged at room temperature for 15 minutes at 460×g. The platelet rich plasma (PRP) was separated. The platelets were isolated by centrifuging the PRP for 10 minutes at 1060×g and were washed in 4 ml cold oxygenated Krebs phosphate buffer, pH 7.4. The chilled platelets recovered from centrifuging at 800×g for 10 minutes were resuspended in oxygenated Krebs phosphate buffer and diluted to contain 4.5-6.0×10^4 platelets/μl. Assay samples, prepared on ice, contained 200 μl platelet suspension, 50 μl saline, and 50 μl vehicle or drug under study. The samples were incubated for 10 minutes at 37° C. in a metabolic shaker. The reaction was terminated by immersing the tubes in an ice bath and adding 50 μl of 0.5M citric acid. The samples were centrifuged for 10 minutes in a refrigerated centrifuge and the supernatants thus obtained were decanted and stored at -20° C.
# [2] = canines; J. Cardiovascular Pharmacology, 4, 129 (1982); cited from earlier work
# [3] = guinea pigs; literature; cited from earlier work
# [4] = rabbits; literature; cited from earlier work
# [5] = dose 10^-4 M, SHR washed platelets, 10 minutes at 37° C.
Structure (SMILES),inhibition at 100 µM (thromboxane synthetase; [5]) [%],MABP in mm Hg [1] [mm Hg],further results
O=S(=O)(NCCn1ccnc1)c1ccc(Br)cc1 [4-Bromo-N-[2-(1H-imidazol-1-yl)ethyl]benzenesulfonamide],–,125,–
O=S(=O)(NCCCn1ccnc1)c1ccc(Br)cc1 [4-Bromo-N-[3-(1H-imidazol-1-yl)propyl]benzenesulfonamide],–,126,inhibition at 100 µM (thromboxane synthetase): 100%
O=S(=O)(NCCCCn1ccnc1)c1ccc(Br)cc1 [4-Bromo-N-[4-(1H-imidazol-1-yl)butyl]benzenesulfonamide],91,–,–
O=S(=O)(NCCc1cccnc1)c1ccc(Cl)cc1 [4-Chloro-N-[2-(3-pyridyl)ethyl]benzenesulfonamide],90,109,–
"O=S(=O)(NCCCn1cncn1)c1ccc(Cl)cc1 [4-Chloro-N-[3-(1H-1,2,4-triazol-1-yl)propyl]benzenesulfonamide]",–,127,–
O=S(=O)(NCCCCCn1ccnc1)c1ccc(Cl)cc1 [4-Chloro-N-[5-(1H-imidazol-1-yl)pentyl]benzenesulfonamide],–,119,–
CCCCC[C@H](O)/C=C/[C@@H]1[C@H]2C/C(=C/CCCC(=O)O)O[C@H]2C[C@H]1O [PGI2],–,–,effect on ischemic myocardium (in words) [2]: beneficial effects
CCCCCC(O)/C=C/C1OC2CC(O2)C1C/C=C\CCCC(=O)O (centres unmarked) [TXA2],–,–,effect of injection into coronary arteries (in words) [3]: causes myocardial ischemia and subendocardial necrosis; effect of injection into coronary arteries (in words) [4]: causes myocardial ischemia and subendocardial necrosis

# More lines, main results first:
inhibition at 100 µM (thromboxane synthetase; [5]) [%],Structure (SMILES),MABP in mm Hg [1] [mm Hg],further results
99,O=S(=O)(NCCCn1ccnc1)c1ccc(Cl)cc1 [4-Chloro-N-[3-(1H-imidazol-1-yl)propyl]benzenesulfonamide],120,–
94,O=S(=O)(NCCCCn1ccnc1)c1ccc(Cl)cc1 [4-Chloro-N-[4-(1H-imidazol-1-yl)butyl]benzenesulfonamide],–,–
97,O=S(=O)(NCCCCCn1ccnc1)c1ccc(Cl)cc1 [4-Chloro-N-[5-(1H-imidazol-1-yl)pentyl]benzenesulfonamide hydrochloride],–,–
93,O=S(=O)(NCCCCCCCCn1ccnc1)c1ccc(Cl)cc1 [4-Chloro-N-[8-(1H-imidazol-1-yl)octyl]benzenesulfonamide],132,–
67,"O=S(=O)(NCCCn1cncn1)c1ccccc1 [N-[3-(1H-1,2,4-Triazol-1-yl)propyl]benzenesulfonamide]",–,–
100,COc1ccc(S(=O)(=O)NCCCn2ccnc2)cc1 [N-[3-(1H-Imidazol-1-yl)propyl]-4-methoxybenzenesulfonamide],–,–
93,O=S(=O)(NCCCCn1ccnc1)c1ccccc1 [N-[4-(1H-Imidazol-1-yl)butyl]benzenesulfonamide],–,–
97,COc1ccc(S(=O)(=O)NCCCCn2ccnc2)cc1 [N-[4-(1H-imidazol-1-yl)butyl]-4-methoxybenzenesulfonamide],134,–
73,CC(=O)Nc1ccc(S(=O)(=O)NCCCn2ccnc2)cc1 [N-[4-[[[3-(1H-Imidazol-1-yl)propyl]amino]sulfonyl]phenyl]acetamide],131,–
100,CC(=O)Nc1ccc(S(=O)(=O)NCCCCn2ccnc2)cc1 [N-[4-[[[4-(1H-imidazol-1-yl)butyl]amino]sulfonyl]phenyl]acetamide],116,–
